Measured values taken from patent US10731134B2, “Production method for artificial cancer stem cell and induced differentiation method therefor” (Public University Corporation Yokohama City University, priority 2011, dated 2020).
Entries after “also recorded” stand apart in the source; their conditions may differ.

Columns and labels:
[1] = test system: (CD44high/CD24low) cancer stem cells; conditions: mixed population of cancer stem cells and cancer cells; Gupta et al. 2009; cited from earlier work
[2] = test system: (CD44low/CD24high) cancer cells; conditions: mixed population of cancer stem cells and cancer cells; Gupta et al. 2009; cited from earlier work
[3] = test system: CSC-10A-D9 induced by differentiation from CSC-10A (induced cancer stem cells); assay: Induced differentiation of CSC-10A by addition of salinomycin (phase-contrast morphology, alkaline phosphatase staining, Western blot); assay type: cell-based, human
Description: Also, these cells were stained with an undifferentiation marker alkaline phosphatase (ALP). […] Next, these cells were lysed and subjected to Western blot.
Induced Differentiation Method for CSC-10A (Addition of Salinomycin)
CSC-10A was seeded over 10-cm dishes. After 24 hours, salinomycin was added to give a final concentration of […] and the culture was continued at 37° C. Four days after the addition of salinomycin, the cells were stained with alkaline phosphatase. The cells were recovered four days after the addition of salinomycin and subjected to Western blot which confirmed the expression of vimentin, β-catenin, and tubulin (control).

[4] = Western blot, 10 μM salinomycin, 4 days after addition

CC(=O)O[C@H]1C(=O)[C@@]2(C)[C@H]([C@H](OC(=O)c3ccccc3)[C@]3(O)C[C@H](OC(=O)[C@H](O)[C@@H](NC(=O)c4ccccc4)c4ccccc4)C(C)=C1C3(C)C)[C@]1(OC(C)=O)CO[C@@H]1C[C@@H]2O [Taxol]
Effect on (CD44high/CD24low) cancer stem cells [1]: left intact | Effect on (CD44low/CD24high) cancer cells [2]: only inhibits the growth of cancer cells

CC[C@@H](C(=O)[C@@H](C)[C@@H](O)[C@H](C)[C@@H]1O[C@@H]([C@@H](CC)C(=O)O)CC[C@@H]1C)[C@H]1O[C@]2(C=C[C@@H](O)[C@]3(CC[C@@](C)([C@H]4CC[C@](O)(CC)[C@H](C)O4)O3)O2)[C@H](C)C[C@@H]1C [salinomycin]
Staining with undifferentiation marker alkaline phosphatase (ALP-positive cells) ([3]; 10 μM salinomycin vs DMSO, 4 days after addition): significant decrease in ALP-positive cells; also recorded: decreased | Size of each individual cell ([3]; 10 μM salinomycin vs DMSO, 4 days later): increased | Cell differentiation / morphology under a phase-contrast microscope ([3]; 10 μM salinomycin vs DMSO, observed 4 days later): differentiated into epithelial-like cells | Expression of differentiation (epithelial) marker beta-catenin [3, 4]: increase | Expression of stem cell (mesenchymal) marker vimentin [3, 4]: decrease | Effect on (CD44high/CD24low) cancer stem cells [1]: kills only cancer stem cells | Effect on (CD44low/CD24high) cancer cells [2]: leaving cancer cells intact
